Laboratory results taken from PMC10175918 (Communications Biology, 2023).
Like-named read-outs stand apart in the source and are kept apart here.

Assays:
Experiment in all cases: TGFα-shedding assay-based GPCR screening with chimeric Gα subunit proteins
Type in all cases: cell-based
[1] = molecular target: 348 GPCRs (Homo sapiens, UniProt P07550); conditions: 10µM, Favipiravir 100μM
[2] = molecular target: T1, 348 GPCRs (Homo sapiens, UniProt P21917); conditions: 10µM, Favipiravir 100μM
T1 sequence (P21917 1-419): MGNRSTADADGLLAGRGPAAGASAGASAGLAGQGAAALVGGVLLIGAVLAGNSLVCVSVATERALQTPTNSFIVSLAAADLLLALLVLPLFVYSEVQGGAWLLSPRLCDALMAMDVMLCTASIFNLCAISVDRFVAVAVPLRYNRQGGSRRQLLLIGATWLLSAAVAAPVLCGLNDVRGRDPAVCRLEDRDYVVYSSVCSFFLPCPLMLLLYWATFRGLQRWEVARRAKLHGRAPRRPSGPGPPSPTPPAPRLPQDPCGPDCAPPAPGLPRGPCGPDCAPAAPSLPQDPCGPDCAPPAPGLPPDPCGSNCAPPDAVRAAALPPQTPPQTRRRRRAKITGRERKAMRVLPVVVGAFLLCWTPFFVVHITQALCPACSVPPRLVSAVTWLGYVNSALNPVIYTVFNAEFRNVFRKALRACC

[3] = molecular target: T2, 348 GPCRs (Homo sapiens, UniProt P23945); conditions: 10µM, Favipiravir 100μM
T2 construct: expressed in transfected cells; host or cells: HEK293A
T2 sequence (P23945 18-695): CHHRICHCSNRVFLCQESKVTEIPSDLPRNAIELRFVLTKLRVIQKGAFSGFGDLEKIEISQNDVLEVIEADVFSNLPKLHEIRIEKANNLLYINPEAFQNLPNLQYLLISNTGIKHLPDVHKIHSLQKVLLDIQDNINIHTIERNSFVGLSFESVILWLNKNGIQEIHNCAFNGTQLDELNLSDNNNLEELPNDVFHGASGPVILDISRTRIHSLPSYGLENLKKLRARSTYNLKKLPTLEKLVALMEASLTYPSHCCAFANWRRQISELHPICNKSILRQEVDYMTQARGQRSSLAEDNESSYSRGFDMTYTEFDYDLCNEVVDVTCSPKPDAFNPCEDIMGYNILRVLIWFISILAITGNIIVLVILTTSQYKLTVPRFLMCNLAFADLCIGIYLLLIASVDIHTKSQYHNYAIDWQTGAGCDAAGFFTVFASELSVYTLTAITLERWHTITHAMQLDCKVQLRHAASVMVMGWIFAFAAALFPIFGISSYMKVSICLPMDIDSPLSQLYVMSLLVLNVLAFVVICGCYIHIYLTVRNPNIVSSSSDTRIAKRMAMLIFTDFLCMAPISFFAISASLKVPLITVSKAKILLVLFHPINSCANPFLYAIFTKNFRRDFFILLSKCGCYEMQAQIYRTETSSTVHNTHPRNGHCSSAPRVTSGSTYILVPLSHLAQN

[4] = molecular target: 348 GPCRs (Homo sapiens, UniProt P32745); conditions: 10µM, Favipiravir 100μM
[5] = molecular target: T3, 348 GPCRs (Homo sapiens, UniProt P35368)
T3 construct: expressed in transfected cells; host or cells: HEK293A
T3 sequence (P35368 1-520): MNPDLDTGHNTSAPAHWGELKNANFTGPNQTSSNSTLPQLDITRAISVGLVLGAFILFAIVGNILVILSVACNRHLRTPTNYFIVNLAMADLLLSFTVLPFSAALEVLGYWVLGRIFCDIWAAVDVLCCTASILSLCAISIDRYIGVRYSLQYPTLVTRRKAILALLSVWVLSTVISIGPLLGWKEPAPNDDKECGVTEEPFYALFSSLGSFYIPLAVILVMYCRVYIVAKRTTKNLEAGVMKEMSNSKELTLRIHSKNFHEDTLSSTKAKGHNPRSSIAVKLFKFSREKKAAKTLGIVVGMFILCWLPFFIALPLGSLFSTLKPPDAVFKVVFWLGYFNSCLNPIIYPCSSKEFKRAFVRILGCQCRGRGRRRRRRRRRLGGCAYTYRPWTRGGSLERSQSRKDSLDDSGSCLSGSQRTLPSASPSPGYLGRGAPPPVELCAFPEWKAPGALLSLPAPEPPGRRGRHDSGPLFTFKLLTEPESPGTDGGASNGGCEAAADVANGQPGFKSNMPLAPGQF

[6] = molecular target: T4, 348 GPCRs (Homo sapiens, UniProt Q8NGU9); conditions: 10µM, Favipiravir 100μM
T4 construct: expressed in transfected cells; host or cells: HEK293A

[7] = molecular target: T5, 348 GPCRs (Homo sapiens, UniProt Q9NYW0); conditions: 10µM, Favipiravir 100μM
T5 construct: expressed in transfected cells; host or cells: HEK293A
T5 sequence (Q9NYW0 1-307): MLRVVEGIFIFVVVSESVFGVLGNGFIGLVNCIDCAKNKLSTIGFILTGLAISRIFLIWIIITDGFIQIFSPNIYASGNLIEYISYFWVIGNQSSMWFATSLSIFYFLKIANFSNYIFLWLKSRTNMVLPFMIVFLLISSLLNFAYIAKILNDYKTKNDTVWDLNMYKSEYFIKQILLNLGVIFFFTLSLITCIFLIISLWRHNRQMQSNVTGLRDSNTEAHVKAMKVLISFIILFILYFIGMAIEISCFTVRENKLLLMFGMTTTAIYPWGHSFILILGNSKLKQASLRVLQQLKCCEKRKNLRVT

[8] = ADRB2 (adrenoceptor beta 2, surface), read-out: % GPCR activation compared to TPA
[9] = D4 (dopamine receptor D4), read-out: % GPCR activation compared to TPA
[10] = FSHR (follicle stimulating hormone receptor), read-out: % GPCR activation compared to TPA
[11] = SSTR3 (somatostatin receptor 3), read-out: % GPCR activation compared to TPA
[12] = GPCR α1B (adrenoceptor alpha 1B), read-out: % GPCR activation compared to TPA
[13] = GPR150 (G protein-coupled receptor 150), read-out: % GPCR activation compared to TPA
[14] = TAS2R10 (taste receptor, type 2, member 10), read-out: % GPCR activation compared to TPA
[15] = read-out: % GPCR activation compared to TPA, ADRB2 (adrenoceptor beta 2, surface)
[16] = read-out: % GPCR activation compared to TPA, D4 (dopamine receptor D4)
[17] = read-out: % GPCR activation compared to TPA, FSHR (follicle stimulating hormone receptor)
[18] = read-out: % GPCR activation compared to TPA, SSTR3 (somatostatin receptor 3)
[19] = read-out: % GPCR activation compared to TPA, GPCR α1B (adrenoceptor alpha 1B)
[20] = read-out: % GPCR activation compared to TPA, GPR150 (G protein-coupled receptor 150)
[21] = read-out: % GPCR activation compared to TPA, TAS2R10 (taste receptor, type 2, member 10)

Sequence of 348 GPCRs (Homo sapiens, UniProt P07550) (P07550 whole entry): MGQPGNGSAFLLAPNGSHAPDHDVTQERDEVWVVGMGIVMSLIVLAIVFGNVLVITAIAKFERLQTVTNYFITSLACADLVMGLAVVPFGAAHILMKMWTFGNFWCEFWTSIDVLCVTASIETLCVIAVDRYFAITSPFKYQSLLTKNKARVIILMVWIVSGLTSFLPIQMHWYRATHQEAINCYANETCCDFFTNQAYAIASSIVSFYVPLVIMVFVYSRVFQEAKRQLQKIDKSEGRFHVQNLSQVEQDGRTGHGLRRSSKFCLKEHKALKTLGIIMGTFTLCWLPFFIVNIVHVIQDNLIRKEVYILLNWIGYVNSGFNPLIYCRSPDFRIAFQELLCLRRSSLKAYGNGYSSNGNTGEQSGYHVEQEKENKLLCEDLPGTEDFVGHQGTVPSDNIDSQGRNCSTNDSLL
Sequence of 348 GPCRs (Homo sapiens, UniProt P32745) (P32745 whole entry): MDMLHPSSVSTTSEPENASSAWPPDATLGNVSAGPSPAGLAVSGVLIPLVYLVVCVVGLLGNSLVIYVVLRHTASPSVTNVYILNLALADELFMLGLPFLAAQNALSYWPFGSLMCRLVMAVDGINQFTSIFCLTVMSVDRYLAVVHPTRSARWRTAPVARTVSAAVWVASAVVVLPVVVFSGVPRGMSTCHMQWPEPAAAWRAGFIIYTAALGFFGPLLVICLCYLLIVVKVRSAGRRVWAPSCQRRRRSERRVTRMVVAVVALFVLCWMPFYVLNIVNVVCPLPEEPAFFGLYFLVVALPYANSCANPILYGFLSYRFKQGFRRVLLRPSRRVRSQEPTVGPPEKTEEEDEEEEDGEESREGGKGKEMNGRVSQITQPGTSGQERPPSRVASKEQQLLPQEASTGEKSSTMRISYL
T4 sequence (Q8NGU9 whole entry): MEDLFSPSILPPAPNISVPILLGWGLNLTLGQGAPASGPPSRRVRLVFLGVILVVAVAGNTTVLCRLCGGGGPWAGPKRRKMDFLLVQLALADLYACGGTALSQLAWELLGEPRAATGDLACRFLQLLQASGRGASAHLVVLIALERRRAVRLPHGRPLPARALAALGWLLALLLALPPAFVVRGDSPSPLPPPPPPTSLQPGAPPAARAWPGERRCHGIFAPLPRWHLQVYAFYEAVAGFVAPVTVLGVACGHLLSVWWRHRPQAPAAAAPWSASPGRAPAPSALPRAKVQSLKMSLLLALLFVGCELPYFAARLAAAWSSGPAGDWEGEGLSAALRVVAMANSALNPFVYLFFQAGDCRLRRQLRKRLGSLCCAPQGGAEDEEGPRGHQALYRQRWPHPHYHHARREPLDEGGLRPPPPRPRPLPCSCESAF

Row | SMILES | activation at 10 µM [1, 8] [%] | activation at 100 µM [2, 9] [%] | activation at 100 µM [3, 10] [%] | activation at 10 µM [4, 11] [%] | activation at 10 µM [5, 12] [%] | activation at 100 µM [6, 13] [%] | activation at 100 µM [7, 14] [%] | activation at 10 µM [1, 15] [%] | activation at 100 µM [2, 16] [%] | activation at 100 µM [3, 17] [%] | activation at 10 µM [4, 18] [%] | activation at 10 µM [5, 19] [%] | activation at 100 µM [6, 20] [%] | activation at 100 µM [7, 21] [%] | activation at 100 µM ([5]; GPCR α1B (adrenoceptor alpha 1B), 100μM, read-out: % GPCR activation compared to TPA) [%]
1 | N#C[C@@]1(c2ccc3c(N)ncnn23)O[C@H](CO)[C@@H](O)[C@H]1O [GS441524] | -0.409 | 3.32 | 1.25 | 3.54 | -1.17 | 0.708 | 0.66 | – | – | – | – | – | – | – | –
2 | CC(C)OC(=O)[C@H](C)N[P@](=O)(OC[C@H]1O[C@@H](n2ccc(=O)[nH]c2=O)[C@](C)(F)[C@@H]1O)Oc1ccccc1 [sofosbuvir] | – | – | – | – | – | – | – | 1.76 | -2.21 | 2.02 | -1.81 | 0.342 | 0.239 | -0.149 | –
3 | CCC(CC)COC(=O)[C@H](C)N[P@](=O)(OC[C@H]1O[C@@](C#N)(c2ccc3c(N)ncnn23)[C@H](O)[C@@H]1O)Oc1ccccc1 [remdesivir] | – | – | – | – | – | – | – | 1.06 | 4.84 | 2.23 | 3.89 | -0.0202 | 6.96 | 1.89 | –
4 | CC(C)C(=O)OC[C@H]1O[C@@H](n2ccc(NO)nc2=O)[C@H](O)[C@@H]1O [molnupiravir] | 0.263 | -1.43 | 0.229 | -1.25 | 0.493 | -6.13 | -0.25 | – | – | – | – | – | – | – | –
5 | NC(=O)c1nc(F)cnc1O [favipiravir, 6-fluoro-3-hydroxy-2-pyrazinecarboxamide] | -1 | 2.6 | 3.61 | 1.41 | – | -0.462 | 1.23 | – | – | – | – | – | – | – | -1.61
